{"source": "patent US20250034216A1", "about": "“STEREOSELECTIVE COVALENT LIGANDS FOR ONCOGENIC AND IMMUNOLOGICAL PROTEINS” (The Scripps Research Institute, priority 2021, published 2025)", "key": {"[1]": {"target": "T1, recombinant FLAG-PSME1 (PSME1_C22) (Homo sapiens, UniProt Q06323)", "T1 construct": "FLAG (C); expressed in transfected cells; host or cells: HEK293T (lysate treated in vitro)", "assay": "Gel-based ABPP for PSME1 cysteine engagement", "type": "binding", "details": "HEK293T lysates expressing FLAG-PSME1, in vitro, then 2.5 μM MY-11B 30 min; read-out: IC50 for engaging PSME1_C22 (competition against MY-11B labeling)", "experimental": "C-terminally FLAG-tagged PSME1 WT or C22A were transiently expressed in HEK293T cells, harvested 48 hours later, then cells were divided into aliquots, flash frozen and stored at −80 C. On the day of the experiment, an aliquot of cells were thawed, lysed by sonication in ice-cold PBS supplemented with cOmplete protease inhibitors (1 tablet/10 mL of PBS). normalized to 2.0 mg/mL, and divided into 25 μL aliquots. 1 μL of DMSO or compound (25× stock) was incubated with lysates for 1.5 hours at RT, followed by incubation with 1 μL of 62.5 μM MY-11B click probe (final concentration […]) for an additional 30 minutes. Reagents for the CuAAC click reaction were pre-mixed prior to addition to the samples. After 1 hour of click labeling, 4×SDS running buffer was added to samples, which were then analyzed by SDS-PAGE. ImageJ was used to quantify rhodamine band intensities, and GraphPad PRISM Version 9.0.0 was used to generate IC50 curves (four-parameter variable slope least squares regression)."}, "[2]": {"tested_on": "20S core proteasomal complex", "assay": "SEC-MS elution profile", "type": "cell-based, human", "details": "22Rv1 cells, 20 μM, 3 h", "experimental": "Sample preparation: Cells (adherent: 15 cm dishes, suspension: 2 million cells/mL) were treated with electrophilic probes in situ for indicated times and concentrations (elaborated fragments: 20 μM, 3 h), washed with ice-cold PBS, and flash frozen in liquid nitrogen. Cell pellets were lysed by sonication (8 pulses, 40% power) in 600 μL ice-cold PBS supplemented with cOmplete protease inhibitors (1 tablet/10 mL of PBS), ultracentrifuged for 20 min at 100,000 g, then normalized to a standardized concentration (typically 1.5 to 2.5 mg/mL). Clarified lysate was injected into a Superdex 200 Increase 10/300 GL column attached to an AKTA pure FPLC system. Proteins were fractionated using an isocratic gradient (PBS) running at 0.5 mL/min into 5 fractions 2 mL wide, beginning at 8 mL and ending at 18 mL. Eluate was collected into 15 mL tubes containing 12 mL of acetone at 4C. […]\n(§1) Data processing: Fractional distributions for each peptide-spectra match with a total TMT reporter ion intensity were calculated by dividing the reporter ion intensity for each TMT channel by the summed intensity across the 5 TMT channels corresponding to a single treatment condition (Equation 1). […] Euclidean distances (SE shift scores, Equation 2) were calculated using the average elution profile for each protein across replicates, combined by treatment condition and cell line. […]"}, "DDX42": {"tested_on": "DDX42", "assay": "SEC-MS elution profile", "type": "cell-based, human", "details": "22Rv1 cells, 20 μM, 3 h", "experimental": ". Cell pellets were lysed by sonication (8 pulses, 40% power) in 600 μL ice-cold PBS supplemented with cOmplete protease inhibitors (1 tablet/10 mL of PBS), ultracentrifuged for 20 min at 100,000 g, then normalized to a standardized concentration (typically 1.5 to 2.5 mg/mL). Clarified lysate was injected into a Superdex 200 Increase 10/300 GL column attached to an AKTA pure FPLC system. Proteins were fractionated using an isocratic gradient (PBS) running at 0.5 mL/min into 5 fractions 2 mL wide, beginning at 8 mL and ending at 18 mL. Eluate was collected into 15 mL tubes containing 12 mL of acetone at 4C. After completion of one set of 5 fractions, the above protocol was repeated a second time for the remaining 5 fractions. Proteins were precipitated overnight at −20 C, then spun at 4500 g for 20 minutes, yielding a white protein pellet. […]\nas §1"}}}
{"compound": "CC#CC(=O)N1C[C@H](c2ccc(Br)cc2)[C@@H]1C(=O)Nc1cccc2cccnc12", "note": "[MY-45B, (2R,3S)-3-(4-bromophenyl)-1-(but-2-ynoyl)-N-(quinolin-8-yl)azetidine-2-carboxamide]", "values": [{"measurement": "IC50", "setting": "[1]", "value": "~0.4", "unit": "µM"}]}
{"compound": "C=CC(=O)N1C[C@H](c2ccc(Br)cc2)[C@@H]1C(=O)Nc1cccc2cccnc12", "note": "[MY-1B, (2R,3S)-1-acryloyl-3-(4-bromophenyl)-N-(quinolin-8-yl)azetidine-2-carboxamide]", "values": [{"measurement": "SEC migration of 20S core proteasomal complex subunits", "setting": "[2]", "value": "unaffected"}]}
{"compound": "C=CC(=O)N1[C@H](c2ccc3c(c2)OCO3)c2[nH]c3ccccc3c2C[C@H]1C(=O)N1CCOCC1", "note": "[WX-02-23, 1-((1R,3S)-1-(benzo[d][1,3]dioxol-S-yl)-3-(morpholine-4-carbonyl)-1,3,4,9-tetrahydro-2H-pyrido [3,4-b]indol-2-yl)prop-2-en-1-one]", "values": [{"measurement": "SEC migration shift of DDX42", "setting": "DDX42", "value": "stereoselectively caused this same size shift"}]}
